According to BigSolDB 2.1:

O=C1CCC(c2ccc(Cl)c(Cl)c2)c2ccccc21 (configuration not stated)
Conditions | solubility (mole fraction)
in DMF, 278.16 K | 0.0335
in DMF, 283.37 K | 0.0408
in DMF, 288.12 K | 0.0487
in DMF, 293.13 K | 0.059
in DMF, 298.17 K | 0.0717
in DMF, 303.28 K | 0.0881
in DMF, 308.28 K | 0.106
in DMF, 313.32 K | 0.129
in DMF, 318.27 K | 0.155
in THF, 278.04 K | 0.0699
in THF, 282.93 K | 0.0823
in THF, 288.33 K | 0.096
in THF, 293.28 K | 0.109
in THF, 298.24 K | 0.124
in THF, 302.94 K | 0.14
in THF, 308.34 K | 0.162
in THF, 313.52 K | 0.187
in acetone, 282.13 K | 0.0162
in acetone, 288.02 K | 0.0217
in acetone, 292.83 K | 0.0261
in acetone, 298.28 K | 0.0321
in acetone, 303.23 K | 0.0397
in acetone, 307.94 K | 0.0498
in acetone, 313.74 K | 0.0673
in acetone, 318.56 K | 0.0871
in acetone, 323.57 K | 0.114
in ethanol, 283.12 K | 0.00171
in ethanol, 288.27 K | 0.0021
in ethanol, 293.38 K | 0.00252
in ethanol, 298.04 K | 0.00303
in ethanol, 302.93 K | 0.00376
in ethanol, 308.32 K | 0.0049
in ethanol, 314.17 K | 0.00667
in ethanol, 318.74 K | 0.00852
in ethanol, 323.26 K | 0.0108
in isopropanol, 278.12 K | 0.000955
in isopropanol, 283.38 K | 0.00128
in isopropanol, 288.33 K | 0.00163
in isopropanol, 293.07 K | 0.00209
in isopropanol, 298.33 K | 0.00278
in isopropanol, 303.36 K | 0.0037
in isopropanol, 308.46 K | 0.00496
in isopropanol, 313.26 K | 0.00649
in isopropanol, 318.54 K | 0.00864
in methanol, 277.93 K | 0.00087
in methanol, 283.06 K | 0.00107
in methanol, 288.28 K | 0.00141
in methanol, 293.42 K | 0.00186
in methanol, 298.04 K | 0.00235
in methanol, 302.77 K | 0.00293
in methanol, 308.56 K | 0.00372
in methanol, 313.53 K | 0.00446
in methanol, 319.04 K | 0.00533
in toluene, 278.18 K | 0.0391
in toluene, 283.13 K | 0.0461
in toluene, 288.28 K | 0.0548
in toluene, 293.22 K | 0.0649
in toluene, 298.12 K | 0.0771
in toluene, 303.14 K | 0.0924
in toluene, 308.46 K | 0.112
in toluene, 313.43 K | 0.135
in toluene, 318.34 K | 0.161
